# Laboratory results published in ChEMBL document CHEMBL1201862, “PubChem BioAssay data set” (2004).
# Calls of active or inactive are those of the source.
# What was measured:
# [1] = molecular target: Large T antigen (Simian virus 40, UniProt P03070); type: functional, Betapolyomavirus macacae;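 also: Confirmatory-stage PubChem screen for compounds that inhibit SV40 T antigen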
# [2] = molecular target: T1, Mannose-6-phosphate isomerase (Homo sapiens, UniProt P34949); assay: inhibitors of human PMI, primary screen, biochemical, fluorescence intensity, coupled assay (AID 1209)
# T1 sequence (P34949 whole entry): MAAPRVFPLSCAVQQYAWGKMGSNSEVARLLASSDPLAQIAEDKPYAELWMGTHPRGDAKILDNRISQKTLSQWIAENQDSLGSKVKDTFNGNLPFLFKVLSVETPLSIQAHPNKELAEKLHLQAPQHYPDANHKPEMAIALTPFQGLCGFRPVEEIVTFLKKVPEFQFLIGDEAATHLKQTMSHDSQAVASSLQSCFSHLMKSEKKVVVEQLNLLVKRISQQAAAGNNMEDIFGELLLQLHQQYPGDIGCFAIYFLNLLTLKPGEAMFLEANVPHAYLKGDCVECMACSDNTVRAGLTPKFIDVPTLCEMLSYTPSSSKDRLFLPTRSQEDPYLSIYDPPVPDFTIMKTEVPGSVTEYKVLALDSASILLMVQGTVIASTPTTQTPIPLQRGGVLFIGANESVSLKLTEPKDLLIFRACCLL
# [3] = cytotoxicity in MIN6 insulinoma cells, dose response, cytotoxicity control, cell-based, mouse insulinoma (AID 2122); type: functional;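 also: confirmatory high-throughput counterscreen run to flag cytotoxic compounds; mouse MIN-6 beta cells carrying an insulin promoter eGFP reporter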
# [4] = insulin promoter down-regulators in MIN6 cells, imaging, high-content screening, mouse beta cells (AID 1628); type: functional
# [5] = test system: Staphylococcus aureus; assay: Inhibitors of Bacterial Quorum Sensing Structure Activity Relationship (SAR) Analysis: Dose Response Assay. [Related pubchem assays: 700, 527 ]; type: functional, organism-based
# [6] = test system: HEK293; assay: Fluorescence-based counterscreen for potentiators or agonists of NPY-Y2: cell-based high-throughput dose response assay to identify inhibitors of cyclic nucleotide gated ion channel (CNGC) activity. In this assay, the parental HEK293 cell line transfected with a cyclic-nucleotide gated ion channel (CNGC)-based cAMP sensor is used to measure inhibition of isoproterenol-induced CNGC activity by test compound.; type: functional; conditions: Homo sapiens
# [7] = test system: HEK293; assay: cells; conditions: Homo sapiens
# [8] = molecular target: Tumor necrosis factor (Homo sapiens, UniProt P01375); assay: TNFa-triggered NF-kB activation inhibitors, SAR follow-up, cell-based, revised (AID 2337); type: functional
# Chain of Tumor necrosis factor (P01375 whole entry): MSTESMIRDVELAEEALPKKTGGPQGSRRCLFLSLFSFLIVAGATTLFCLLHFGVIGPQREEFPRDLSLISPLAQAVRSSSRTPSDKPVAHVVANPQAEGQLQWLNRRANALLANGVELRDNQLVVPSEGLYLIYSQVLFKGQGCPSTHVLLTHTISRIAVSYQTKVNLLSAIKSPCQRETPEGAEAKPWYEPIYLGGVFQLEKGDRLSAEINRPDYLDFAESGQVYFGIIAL
# [9] = test system: Vero; assay: cells; type: functional; conditions: Chlorocebus sabaeus
# [10] = molecular target: T2, Nucleotide-binding oligomerization domain-containing protein 1 (Homo sapiens, UniProt Q9Y239); assay: NOD1 signaling inhibitors, SAR follow-up, revised (AID 2333); type: functional
# T2 sequence (Q9Y239 whole entry): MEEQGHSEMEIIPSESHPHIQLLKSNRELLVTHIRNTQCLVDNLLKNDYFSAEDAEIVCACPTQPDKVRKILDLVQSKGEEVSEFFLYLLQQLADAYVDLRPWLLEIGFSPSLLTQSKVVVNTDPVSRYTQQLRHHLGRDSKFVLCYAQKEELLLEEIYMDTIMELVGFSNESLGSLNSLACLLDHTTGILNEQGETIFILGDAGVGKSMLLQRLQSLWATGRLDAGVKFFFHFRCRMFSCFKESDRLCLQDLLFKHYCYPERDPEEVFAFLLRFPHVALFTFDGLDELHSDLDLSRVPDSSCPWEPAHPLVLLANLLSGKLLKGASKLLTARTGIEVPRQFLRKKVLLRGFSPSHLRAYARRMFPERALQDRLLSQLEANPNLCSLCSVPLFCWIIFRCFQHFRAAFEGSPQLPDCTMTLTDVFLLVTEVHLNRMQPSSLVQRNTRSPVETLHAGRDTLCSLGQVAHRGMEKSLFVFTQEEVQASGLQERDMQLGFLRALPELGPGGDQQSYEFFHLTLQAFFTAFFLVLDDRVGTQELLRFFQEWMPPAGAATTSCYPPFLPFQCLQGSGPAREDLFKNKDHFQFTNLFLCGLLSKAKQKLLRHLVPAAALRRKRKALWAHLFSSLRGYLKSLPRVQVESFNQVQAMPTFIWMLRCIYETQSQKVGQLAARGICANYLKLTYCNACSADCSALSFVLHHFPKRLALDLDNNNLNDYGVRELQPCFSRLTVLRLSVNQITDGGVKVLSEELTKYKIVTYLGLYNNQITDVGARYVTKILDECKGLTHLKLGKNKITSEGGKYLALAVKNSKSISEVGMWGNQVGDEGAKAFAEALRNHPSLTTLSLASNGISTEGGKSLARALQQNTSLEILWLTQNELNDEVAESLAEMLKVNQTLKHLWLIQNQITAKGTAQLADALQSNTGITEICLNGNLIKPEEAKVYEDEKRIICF
# [11] = test system: INS1; assay: beta cell apoptosis inhibitors, cytokine rescue, dose response, luminescence, retest (AID 449756); type: functional, cell-based; conditions: Rattus norvegicus;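 also: cell death triggered by IL-1 beta plus TNF-alpha plus IFN-gamma mixture; protective hits raise ATP signal compared with cytokine alone wells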
# [12] = molecular target: T3, Neuropeptide Y receptor type 1 (Homo sapiens, UniProt P25929); assay: Fluorescence-based counterscreen for agonists of NPY-Y2: cell-based high-throughput dose response assay for agonists of NPY-Y1.; type: functional
# T3 sequence (P25929 whole entry): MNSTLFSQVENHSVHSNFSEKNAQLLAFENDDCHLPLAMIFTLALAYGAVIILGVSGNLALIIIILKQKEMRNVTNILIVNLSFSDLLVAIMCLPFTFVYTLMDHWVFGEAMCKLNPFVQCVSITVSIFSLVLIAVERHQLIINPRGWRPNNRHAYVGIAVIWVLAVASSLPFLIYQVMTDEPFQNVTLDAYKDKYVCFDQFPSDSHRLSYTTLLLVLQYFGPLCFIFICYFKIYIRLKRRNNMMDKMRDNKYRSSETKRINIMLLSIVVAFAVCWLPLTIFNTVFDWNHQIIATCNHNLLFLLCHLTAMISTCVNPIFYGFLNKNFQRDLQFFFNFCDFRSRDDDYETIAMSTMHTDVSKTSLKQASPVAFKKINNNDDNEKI
# [13] = molecular target: T4, Neuropeptide Y receptor type 2 (Homo sapiens, UniProt P49146); assay: Fluorescence-based cell-based high-throughput dose response assay for agonists of NPY-Y2. [Related pubchem assays: 1703 (Screening assay (CNGC inhibitors).), 1359 (Screening assay (NPY-Y2 potentiators or agonists).), 1304 (Screening assay (NPY-Y1 potentiators or agonists).), 1710 (Screening assay (NPY-Y2 agonists).), 1791 (Summary AID.)]; type: functional
# T4 sequence (P49146 whole entry): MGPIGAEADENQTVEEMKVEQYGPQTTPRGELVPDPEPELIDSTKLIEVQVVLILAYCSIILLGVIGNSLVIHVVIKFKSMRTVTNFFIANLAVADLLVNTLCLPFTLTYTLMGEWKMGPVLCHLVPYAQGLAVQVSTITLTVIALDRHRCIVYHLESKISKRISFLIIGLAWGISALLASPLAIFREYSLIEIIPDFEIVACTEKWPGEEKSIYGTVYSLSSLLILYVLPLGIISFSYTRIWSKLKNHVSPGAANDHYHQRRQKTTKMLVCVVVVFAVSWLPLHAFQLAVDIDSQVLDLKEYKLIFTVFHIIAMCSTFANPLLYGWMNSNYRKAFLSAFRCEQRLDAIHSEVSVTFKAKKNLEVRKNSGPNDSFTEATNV
# [14] = molecular target: Transitional endoplasmic reticulum ATPase (Homo sapiens, UniProt P55072, C522A); assay: C522A mutant p97 ATPase inhibitors, dose response, counter-screen for p97 inhibitor project, biochemical, luminescence (AID 1544)
# [15] = molecular target: Transitional endoplasmic reticulum ATPase (Homo sapiens, UniProt P55072); assay: p97 ATPase inhibitors, dose response, biochemical (AID 1534)
# Chain of Transitional endoplasmic reticulum ATPase (Homo sapiens, UniProt P55072) (P55072 whole entry): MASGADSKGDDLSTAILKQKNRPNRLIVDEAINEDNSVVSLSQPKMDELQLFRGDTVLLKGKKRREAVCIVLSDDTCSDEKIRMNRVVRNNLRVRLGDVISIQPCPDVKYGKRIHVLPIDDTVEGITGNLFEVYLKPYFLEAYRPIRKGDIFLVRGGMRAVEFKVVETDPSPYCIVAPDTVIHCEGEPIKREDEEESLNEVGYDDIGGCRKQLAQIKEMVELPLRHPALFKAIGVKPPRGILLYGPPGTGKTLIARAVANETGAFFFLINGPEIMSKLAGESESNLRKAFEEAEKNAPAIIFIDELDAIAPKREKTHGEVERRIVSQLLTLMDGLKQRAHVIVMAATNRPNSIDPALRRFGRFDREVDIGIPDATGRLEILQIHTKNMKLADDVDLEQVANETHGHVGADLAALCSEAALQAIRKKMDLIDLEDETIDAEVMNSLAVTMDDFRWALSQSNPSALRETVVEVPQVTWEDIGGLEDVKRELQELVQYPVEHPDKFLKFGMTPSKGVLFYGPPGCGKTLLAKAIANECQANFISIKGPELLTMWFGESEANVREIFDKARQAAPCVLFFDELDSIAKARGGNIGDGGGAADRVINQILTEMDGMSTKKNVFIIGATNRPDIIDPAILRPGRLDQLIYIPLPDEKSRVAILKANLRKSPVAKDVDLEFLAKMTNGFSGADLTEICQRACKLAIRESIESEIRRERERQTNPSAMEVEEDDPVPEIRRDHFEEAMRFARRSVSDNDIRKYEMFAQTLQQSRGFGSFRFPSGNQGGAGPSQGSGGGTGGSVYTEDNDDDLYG
# [16] = inhibitors of firefly luciferase expression or activity, dose response, H4 neuroglioma cells, luminescence (AID 1990); type: functional, cell-based
# [17] = molecular target: T4, Neuropeptide Y receptor type 2; type: functional, cell-based
# [18] = Luminescence Cell-Based Dose Response HTS to Identify Inhibitors of 5'UTR Stem-Loop Driven Prion Protein mRNA Translation in H4 Neuroglioblastoma Cells. [Related pubchem assays: 1827 (Project Summary), 1813 (Primary HTS)]; type: functional
# [19] = molecular target: T3, Neuropeptide Y receptor type 1; type: functional
# [20] = inhibitors of SNCA 5'UTR-driven reporter translation, confirmation, H4 neuroglioma cells, luminescence (AID 1988); type: functional, cell-based
# [21] = molecular target: Lysosomal acid glucosylceramidase (Homo sapiens, UniProt P04062); assay: Dose response cell-based high throughput screening assay to identify enhancers of beta-glucosidase activity. [Related pubchem assays: 784 ]; type: functional
# Chain of Lysosomal acid glucosylceramidase (P04062 whole entry): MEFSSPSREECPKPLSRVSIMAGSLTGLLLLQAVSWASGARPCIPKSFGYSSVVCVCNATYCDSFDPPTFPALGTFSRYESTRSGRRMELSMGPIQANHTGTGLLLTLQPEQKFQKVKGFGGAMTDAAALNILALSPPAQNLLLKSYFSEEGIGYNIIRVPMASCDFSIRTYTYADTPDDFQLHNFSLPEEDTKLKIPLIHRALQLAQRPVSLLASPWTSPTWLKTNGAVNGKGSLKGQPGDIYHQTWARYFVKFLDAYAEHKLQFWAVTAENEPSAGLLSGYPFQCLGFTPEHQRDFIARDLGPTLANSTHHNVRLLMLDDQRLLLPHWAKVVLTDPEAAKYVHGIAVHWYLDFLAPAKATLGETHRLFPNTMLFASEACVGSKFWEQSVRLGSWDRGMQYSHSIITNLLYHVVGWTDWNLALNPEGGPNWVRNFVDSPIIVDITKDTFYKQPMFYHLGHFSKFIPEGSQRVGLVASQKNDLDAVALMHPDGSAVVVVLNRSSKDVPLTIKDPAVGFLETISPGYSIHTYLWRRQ
# [22] = cells; type: functional, cell-based
# [23] = cells; type: functional, cell-based; remark: listed apart in the source
# [24] = molecular target: Wee1-like protein kinase (Homo sapiens, UniProt P30291); assay: Dose Response Cell-based Assay for Inhibitors of Wee1 Degradation. [Related pubchem assays: 1410, 1321 ]; type: functional
# [25] = Vero E6 cell cytotoxicity, dose response, cytotoxicity control for non-replicating M. tuberculosis project, secondary assay (AID 492998); type: functional, VeroE6; conditions: Vero C1008
# [26] = THP-1 cell cytotoxicity, dose response, cytotoxicity control for non-replicating M. tuberculosis project (AID 489025); type: functional
# [27] = microbe, parasite or virus in culture; type: functional; conditions: Mycobacterium tuberculosis
# [28] = molecular target: G2/mitotic-specific cyclin-B1 (Homo sapiens, UniProt P14635); assay: Counterscreen assay for inhibitors of Wee1 degradation: dose response cell-based assay to identify inhibitors of cyclin B degradation. [Related pubchem assays: 1410, 1321 ]; type: functional
# Chain of G2/mitotic-specific cyclin-B1 (P14635 whole entry): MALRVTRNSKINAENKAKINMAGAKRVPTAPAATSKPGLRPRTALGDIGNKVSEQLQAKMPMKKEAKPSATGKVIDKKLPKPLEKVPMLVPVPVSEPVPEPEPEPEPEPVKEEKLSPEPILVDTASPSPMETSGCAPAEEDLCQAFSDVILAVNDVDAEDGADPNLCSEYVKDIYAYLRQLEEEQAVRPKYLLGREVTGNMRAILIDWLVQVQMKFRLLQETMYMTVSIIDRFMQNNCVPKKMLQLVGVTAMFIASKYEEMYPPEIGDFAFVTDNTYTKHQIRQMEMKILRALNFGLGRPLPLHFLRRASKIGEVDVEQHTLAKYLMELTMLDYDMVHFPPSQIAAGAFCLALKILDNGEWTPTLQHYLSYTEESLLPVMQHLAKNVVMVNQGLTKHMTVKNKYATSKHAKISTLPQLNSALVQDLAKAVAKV
# [29] = cytotoxicity in KRAS-transformed pancreatic duct cells, primary screen, cell-based, fluorescence, HTS (AID 431); type: functional; conditions: Homo sapiens;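 also: cell line used: HPDE-C7K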
# [30] = HepG2 cell cytotoxicity, dose response, cytotoxicity control for non-replicating M. tuberculosis project (AID 489018); type: functional; conditions: Mycobacterium tuberculosis
# [31] = cytotoxicity in HPDE-C7 cells, cell-based, fluorescence, HTS (AID 430); type: functional; conditions: Homo sapiens
# [32] = molecular target: T5, Calpain-2 catalytic subunit (Sus scrofa, UniProt P43367); assay: pig calpain II inhibitor potency, dose response, biochemical, fluorogenic peptide substrate (AID 1420); type: functional
# T5 sequence (P43367 whole entry): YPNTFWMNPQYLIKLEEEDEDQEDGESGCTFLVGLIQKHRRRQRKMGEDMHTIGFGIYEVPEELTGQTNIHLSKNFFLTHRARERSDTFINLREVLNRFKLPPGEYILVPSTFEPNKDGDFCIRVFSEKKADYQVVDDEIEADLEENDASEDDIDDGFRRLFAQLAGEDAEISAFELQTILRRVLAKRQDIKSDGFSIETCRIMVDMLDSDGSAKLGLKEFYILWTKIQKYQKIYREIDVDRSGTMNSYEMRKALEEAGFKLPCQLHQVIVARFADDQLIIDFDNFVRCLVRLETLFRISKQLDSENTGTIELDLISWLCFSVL
# [33] = growth suppression of beta-catenin-knockout colon cells, dose response, cell-based, HCT116, human colon tumor (AID 1045); type: functional;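 also: HCT116 colon tumor cells with beta catenin knocked out; cells exposed to compound for 60 hours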
# [34] = cells; type: functional
# [35] = growth suppression of PTEN-null colon cells, dose response, cell-based, HCT116 PTEN knockout (AID 1047); type: functional;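 also: HCT116 colon tumor cells with PTEN knocked out; cells exposed to compound for 60 hours before readout; potency for loss of cell viability measured by luminescence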
# [36] = molecular target: T6, Bcl-2-like protein 10 (Homo sapiens, UniProt Q9HD36); assay: Biochemical TR3 FP assay of Bcl-B inhibitor potency, EC50 (AID 1243); type: functional
# T6 sequence (Q9HD36 whole entry): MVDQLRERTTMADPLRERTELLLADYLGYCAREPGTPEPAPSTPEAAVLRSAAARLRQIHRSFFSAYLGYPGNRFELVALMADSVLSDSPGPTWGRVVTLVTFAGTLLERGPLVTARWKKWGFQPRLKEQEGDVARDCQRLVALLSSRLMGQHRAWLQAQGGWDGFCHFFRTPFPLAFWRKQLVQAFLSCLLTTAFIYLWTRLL
# [37] = molecular target: Peroxisome proliferator-activated receptor gamma/Nuclear receptor corepressor 2 (Homo sapiens, UniProt P37231+Q9Y618); type: functional
# [38] = molecular target: Photoreceptor-specific nuclear receptor (Homo sapiens, UniProt Q9Y5X4); type: functional;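 also: potency for compounds that break the NR2E3 corepressor complex and count as activators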
# Chain of Photoreceptor-specific nuclear receptor (Q9Y5X4 whole entry): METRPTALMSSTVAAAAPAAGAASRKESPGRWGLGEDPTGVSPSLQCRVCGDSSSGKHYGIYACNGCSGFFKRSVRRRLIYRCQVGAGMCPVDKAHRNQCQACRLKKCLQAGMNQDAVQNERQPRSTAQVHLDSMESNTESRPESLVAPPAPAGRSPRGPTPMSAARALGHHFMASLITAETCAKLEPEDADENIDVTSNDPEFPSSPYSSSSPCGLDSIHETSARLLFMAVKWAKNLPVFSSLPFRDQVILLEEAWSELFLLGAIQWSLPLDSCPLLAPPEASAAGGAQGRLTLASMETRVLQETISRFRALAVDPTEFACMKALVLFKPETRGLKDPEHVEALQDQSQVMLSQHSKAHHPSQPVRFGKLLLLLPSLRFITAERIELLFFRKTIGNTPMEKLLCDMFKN
# [39] = molecular target: T7, Eukaryotic translation initiation factor 2-alpha kinase 3 (Homo sapiens, UniProt Q9NZJ5); assay: Counterscreen assay for PERK inhibitors: Dose response cell-based high throughput screening assay to measure inhibition of PERK at 6 hours. [Related pubchem assays: 1522, 1416 ]; type: functional
# T7 sequence (Q9NZJ5 whole entry): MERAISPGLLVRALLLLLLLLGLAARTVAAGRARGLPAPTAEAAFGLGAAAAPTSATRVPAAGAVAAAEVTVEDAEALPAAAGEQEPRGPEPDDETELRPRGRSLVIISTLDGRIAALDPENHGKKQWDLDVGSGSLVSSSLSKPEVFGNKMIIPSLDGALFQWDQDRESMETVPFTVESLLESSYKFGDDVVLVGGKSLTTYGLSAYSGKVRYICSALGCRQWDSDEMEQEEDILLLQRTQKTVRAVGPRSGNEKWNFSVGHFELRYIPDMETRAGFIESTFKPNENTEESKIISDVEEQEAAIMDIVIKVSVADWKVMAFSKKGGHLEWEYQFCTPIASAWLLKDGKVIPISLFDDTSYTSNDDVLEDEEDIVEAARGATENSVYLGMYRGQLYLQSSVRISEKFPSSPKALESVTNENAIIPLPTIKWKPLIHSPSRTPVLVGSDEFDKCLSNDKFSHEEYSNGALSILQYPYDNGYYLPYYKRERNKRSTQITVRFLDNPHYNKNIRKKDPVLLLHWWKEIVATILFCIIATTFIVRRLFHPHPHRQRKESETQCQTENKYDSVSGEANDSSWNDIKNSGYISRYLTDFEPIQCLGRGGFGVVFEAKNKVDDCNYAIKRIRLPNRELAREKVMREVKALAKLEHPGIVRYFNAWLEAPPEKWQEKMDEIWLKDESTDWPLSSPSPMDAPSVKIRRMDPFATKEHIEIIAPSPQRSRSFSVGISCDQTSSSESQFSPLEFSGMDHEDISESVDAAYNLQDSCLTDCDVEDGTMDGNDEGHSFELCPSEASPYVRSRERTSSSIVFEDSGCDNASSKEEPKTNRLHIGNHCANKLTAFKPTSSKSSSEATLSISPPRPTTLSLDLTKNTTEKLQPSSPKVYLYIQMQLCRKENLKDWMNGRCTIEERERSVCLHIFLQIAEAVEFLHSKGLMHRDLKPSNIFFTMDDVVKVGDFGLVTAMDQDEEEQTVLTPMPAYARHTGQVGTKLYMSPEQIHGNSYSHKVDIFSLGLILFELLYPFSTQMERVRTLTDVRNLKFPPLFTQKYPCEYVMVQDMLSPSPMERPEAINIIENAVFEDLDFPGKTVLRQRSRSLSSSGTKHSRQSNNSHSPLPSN
# [40] = molecular target: T7, Eukaryotic translation initiation factor 2-alpha kinase 3; assay: Dose response cell-based high-throughput screening assay to measure PERK inhibition. [Related pubchem assays: 1416 ]; type: functional
# Chain of Large T antigen (P03070 whole entry): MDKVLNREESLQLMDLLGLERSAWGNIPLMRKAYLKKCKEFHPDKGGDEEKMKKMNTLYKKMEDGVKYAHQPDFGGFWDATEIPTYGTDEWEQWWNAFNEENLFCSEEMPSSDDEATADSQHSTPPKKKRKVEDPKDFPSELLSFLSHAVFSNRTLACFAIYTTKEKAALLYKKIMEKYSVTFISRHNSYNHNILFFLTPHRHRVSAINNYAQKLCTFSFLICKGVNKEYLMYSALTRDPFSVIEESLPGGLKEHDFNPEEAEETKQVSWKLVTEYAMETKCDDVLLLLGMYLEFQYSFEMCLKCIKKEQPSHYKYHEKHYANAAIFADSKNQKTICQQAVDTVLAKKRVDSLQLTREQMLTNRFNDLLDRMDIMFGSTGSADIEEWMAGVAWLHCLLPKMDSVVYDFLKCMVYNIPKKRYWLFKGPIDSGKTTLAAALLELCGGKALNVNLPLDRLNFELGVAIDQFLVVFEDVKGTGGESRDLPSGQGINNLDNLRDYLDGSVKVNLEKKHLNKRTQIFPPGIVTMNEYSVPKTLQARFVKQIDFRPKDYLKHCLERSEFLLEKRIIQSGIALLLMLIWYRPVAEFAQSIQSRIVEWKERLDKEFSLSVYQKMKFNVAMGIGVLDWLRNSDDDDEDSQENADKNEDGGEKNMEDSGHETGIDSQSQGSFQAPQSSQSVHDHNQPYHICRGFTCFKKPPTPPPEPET
compound,measurement,setting,value
Cc1ccc(Nc2nc(-c3ccc(O)c(O)c3)cs2)nc1,IC50,[1],12.3 µM (active)
same,IC50,[2],48.6 µM (active)
same,IC50,[3],3.85 µM (active)
same,IC50,[4],6.26 µM (active)
CCc1ccc(S(=O)(=O)c2nnn3c2nc(O)c2ccccc23)cc1,IC50,[5],0.244 µM (active)
O=C(Nc1cccc([N+](=O)[O-])c1)c1cc2ccccc2cc1O,EC50,[6],> 35.4 µM (not active)
same,IC50,[7],11.8 µM (active)
same,IC50,[8],2.2 µM (active)
same,CC50,[9],3.95 µM (active)
same,IC50,[10],1.48 µM (active)
same,IC50,[3],2.72 µM (active)
same,IC50,[4],2.73 µM (active)
same,AC50,[11],3.67 µM (active)
same,EC50,[12],> 35.4 µM (not active)
same,EC50,[13],> 35.4 µM (not active)
Cc1ccc2[nH]cc(C(=O)CCl)c2c1,IC50,[14],> 50 µM (not active)
same,IC50,[15],> 50 µM (not active)
C/C=C(/C)C(=O)O[C@@H]1c2c(ccc3ccc(=O)oc23)O[C@@H]1C(C)(C)OC(=O)/C(C)=C\C,EC50,[16],15.2 µM (active)
same,IC50,[17],5.06 µM (active)
same,EC50,[18],> 120 µM (not active)
same,IC50,[19],5.85 µM (active)
same,EC50,[20],> 120 µM (not active)
COc1ccc(CNC(=O)CN(CC2CCCO2)C(=O)CNS(=O)(=O)c2ccc(C)cc2)cc1 (stereo not drawn),EC50,[21],> 50 µM (not active)
same,EC50,[22],> 350 µM (not active)
same,EC50,[23],> 350 µM (not active)
[O-][n+]1onc2c3cc(-c4ccccc4)[nH]c3ccc21,EC50,[24],> 1.84 µM (active)
same,CC50,[25],1.27 µM (active)
same,CC50,[26],1.57 µM (active)
same,CC50,[27],1.47 µM (active)
same,EC50,[28],> 49.7 µM (not active)
same,EC50,[29],9.83 µM (active)
same,CC50,[30],2.6 µM (active)
same,AC50,[11],2.52 µM (active)
same,EC50,[31],4.16 µM (active)
same,IC50,[32],1.59 µM (not active)
same,EC50,[33],0.597 µM (active)
same,IC50,[34],0.67 µM (active)
same,EC50,[35],0.65 µM (active)
COc1ccc(Nc2ccc(N)cc2)cc1,EC50,[36],7.22 µM (active)
CC(C)Cc1c2c([nH]c(=S)c1C#N)CCCC2,IC50,[37],6.27 µM (active)
same,IC50,[38],> 39.8 µM (not active)
COc1ccc2nc(NC(=O)CSc3nnc(C)n3N)sc2c1,EC50,[39],> 55.7 µM (not active)
same,EC50,[40],> 55.7 µM (not active)
